Earlier results, collected in US20060073539A1 (priority 2001, published 2006).

System: human hepatocyte and neuroblastoma cells
Conditions: cited from earlier work

| SMILES | effect on cell metabolism |
| --- | --- |
| CCOP(=O)(OCC)Oc1ccc([N+](=O)[O-])cc1 [paraoxon] | opposite effects |
| CCOP(=S)(OCC)Oc1ccc([N+](=O)[O-])cc1 [parathion] | opposite effects |
